Assay results from US5914242A, “Method for diminishing myocardial infarction using protein phosphatase inhibitors” (priority 1997, dated 1999).

System: isolated myocytes
Assay: Isolated myocyte simulated ischemia, osmotic fragility (trypan blue) index
Assay type: cell-based, rabbit
Details: 10 μM fostriecin added at onset of ischemia, 120 min; untreated cells 14.3
Experimental: Isolated Myocytes: Rabbit hearts were mounted on a perfusion apparatus as described above and perfused with "high potassium/low calcium" perfusion buffer containing 125 mM NaCl, 30 mM KCl, 25 mM NaHCO3, 1.2 mM KH2 PO4, 1 mg/ml BSA, 1.2 mM MgCl2, 11 mM glucose, 0.68 mM 1-glutamine, and a complete amino acid solution (pH 7.4) for 5 minutes. Collagenase (Worthington Biochemical, Freehold, N.J.) was added at a concentration of 1.25 mg/ml and the heart was perfused for 45-60 minutes until it became soft. The heart was removed from the apparatus and minced in 5 mls of perfusion buffer containing 0.1% w/v BSA. […] Cell counts and viability were assessed by removing 10 μl aliquots, mixing with an equal volume of Tyrode's solution containing 1% trypan blue, and counting within 3-5 minutes by light microscopy. […]
To simulate ischemia, the suspension was divided into 4-6 conical Eppendorf tubes and each tube was spun lightly to form a 0.2-0.5 ml pellet of packed cells. […] Within 5 minutes, at least 300 cells were examined with an inverted stage microscope from multiple areas of the slide, and the numbers of rounded and rod-shaped cells and those stained with trypan blue recorded. […]
The percentage of stained (dead) cells was determined, and a plot of % dead cells vs. time was constructed. An index of non-survival was calculated as the area under the curve after 2 hours and presented as %-hr. […]

## CC(O)(/C=C/C1CC=CC(=O)O1)C(CC(O)\C=C/C=C\C=C\CO)OP(=O)(O)O (stereo not shown) [fostriecin]
  cell fragility index, area under the % trypan blue-positive cells vs time curve: 10.6 %.cndot.hr
